In patent US20090137572A1, “2-substituted-4-heteroaryl-pyrimidines useful for the treatment of proliferative disorders” (priority 2004, published 2009):

Columns and labels:
Assay in all cases: Kinase selectivity profile, kinase inhibition IC50 (Table 4), ATP 100 μM
Assay type in all cases: biochemical
[1] = target: T1, protein kinases (panel of Table 4) (Homo sapiens, UniProt P09619); settings: kinase PDGFb
T1 construct: other: kinase PDGFb; ATP 100 μM
Experimental: (§1) For the assays shown in Table 3, the kinases were assayed at the following ATP concentrations: SAPK4, PKBΔph, GSK3b, SAPK3, CK2, MKK1, PIM2, IKKB, ERK8, and PRK2 at 5 μM; JNK, PRAK, ROCK-II, SAPK2b, CDK2, CHK1, MSK1, CSK, P70S6K, PKA, CK1, MAPKAP-K2, SGK, PKCa, PDK1, NEK 7, and MAPKAP-K3 at 20 μM; SAPK2a, LCK, AMPK, MAPK2, DYRK1a, MAPKAP-K1a, NEK-6, NEK2a, PBK, CAMK-1, SRPK-1, JNK3, MNK2, RSK2, MNK1, PKBB, and SmMLCK at 50 μM. For the assays in Table 4 the ATP concentration was 100 μM throughout.

[2] = target: T2, protein kinases (panel of Table 4) (Homo sapiens, UniProt P50613); settings: kinase CDK7H
T2 construct: other: kinase CDK7H; ATP 100 μM
Experimental: as §1

[3] = target: T3, protein kinases (panel of Table 4) (Homo sapiens, UniProt P00519); settings: kinase Ab1
T3 construct: other: kinase Ab1; ATP 100 μM
Experimental: as §1

[4] = target: T4, protein kinases (panel of Table 4) (Homo sapiens, UniProt P49840); settings: kinase GSK3a
T4 construct: other: kinase GSK3a; ATP 100 μM
Experimental: as §1

[5] = target: T5, protein kinases (panel of Table 4) (Homo sapiens, UniProt P36888); settings: kinase Flt3
T5 construct: other: kinase Flt3; ATP 100 μM
T5 sequence (P36888 1-993): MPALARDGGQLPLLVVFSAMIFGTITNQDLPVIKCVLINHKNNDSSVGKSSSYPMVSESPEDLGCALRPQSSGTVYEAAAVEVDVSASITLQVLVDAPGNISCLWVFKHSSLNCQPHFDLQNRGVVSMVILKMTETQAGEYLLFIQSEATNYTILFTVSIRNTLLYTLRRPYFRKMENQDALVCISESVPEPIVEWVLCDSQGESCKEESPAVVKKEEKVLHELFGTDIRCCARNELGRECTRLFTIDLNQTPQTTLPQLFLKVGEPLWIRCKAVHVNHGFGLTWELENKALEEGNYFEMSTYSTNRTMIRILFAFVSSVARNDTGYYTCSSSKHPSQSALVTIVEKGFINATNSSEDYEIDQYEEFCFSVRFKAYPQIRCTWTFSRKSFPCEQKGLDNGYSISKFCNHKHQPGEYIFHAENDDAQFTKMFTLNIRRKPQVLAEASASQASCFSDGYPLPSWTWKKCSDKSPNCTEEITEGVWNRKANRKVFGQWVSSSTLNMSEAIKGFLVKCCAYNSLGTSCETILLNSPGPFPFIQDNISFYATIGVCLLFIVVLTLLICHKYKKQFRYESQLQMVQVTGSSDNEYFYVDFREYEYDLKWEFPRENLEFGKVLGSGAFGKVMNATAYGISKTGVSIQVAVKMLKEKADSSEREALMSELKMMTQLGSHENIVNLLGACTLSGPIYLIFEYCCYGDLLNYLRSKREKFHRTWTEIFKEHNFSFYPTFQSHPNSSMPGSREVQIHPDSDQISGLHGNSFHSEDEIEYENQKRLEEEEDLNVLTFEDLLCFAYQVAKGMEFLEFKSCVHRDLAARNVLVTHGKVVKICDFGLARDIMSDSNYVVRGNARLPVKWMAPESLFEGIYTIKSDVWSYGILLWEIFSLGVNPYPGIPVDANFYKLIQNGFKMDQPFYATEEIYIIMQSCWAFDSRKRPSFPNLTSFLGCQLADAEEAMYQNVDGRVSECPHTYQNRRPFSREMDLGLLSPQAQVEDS
Experimental: as §1

[6] = target: T6, protein kinases (panel of Table 4) (Homo sapiens, UniProt O14965); settings: kinase Aurora A
T6 construct: other: kinase Aurora A; ATP 100 μM
T6 sequence (O14965 1-403): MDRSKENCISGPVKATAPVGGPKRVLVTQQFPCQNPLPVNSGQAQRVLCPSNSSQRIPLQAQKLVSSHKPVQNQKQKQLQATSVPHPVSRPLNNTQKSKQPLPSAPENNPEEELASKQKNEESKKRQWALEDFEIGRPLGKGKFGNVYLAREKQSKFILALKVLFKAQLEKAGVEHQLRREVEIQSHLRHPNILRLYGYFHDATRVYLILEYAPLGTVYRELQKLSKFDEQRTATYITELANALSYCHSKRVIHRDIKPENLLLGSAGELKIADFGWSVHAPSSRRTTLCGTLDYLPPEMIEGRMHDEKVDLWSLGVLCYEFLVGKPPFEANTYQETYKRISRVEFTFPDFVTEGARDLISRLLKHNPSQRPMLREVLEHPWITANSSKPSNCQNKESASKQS
Experimental: as §1

[7] = target: T7, protein kinases (panel of Table 4) (Homo sapiens, UniProt P50750); settings: kinase CDK9T1
T7 construct: other: kinase CDK9T1; ATP 100 μM
Experimental: as §1

[8] = target: T8, protein kinases (panel of Table 4) (Homo sapiens, UniProt P11802); settings: kinase CDK4D1
T8 construct: other: kinase CDK4D1; ATP 100 μM
Experimental: as §1

[9] = target: T9, protein kinases (panel of Table 4) (Homo sapiens, UniProt P06239); settings: kinase Lck
T9 construct: other: kinase Lck; ATP 100 μM
Experimental: as §1

[10] = target: T10, protein kinases (panel of Table 4) (Homo sapiens, UniProt Q00534); settings: kinase CDK6D3
T10 construct: other: kinase CDK6D3; ATP 100 μM
Experimental: as §1

[11] = target: T11, protein kinases (panel of Table 4) (Homo sapiens, UniProt P53350); settings: kinase Plk1
T11 construct: other: kinase Plk1; ATP 100 μM
Experimental: as §1

[12] = target: T12, protein kinases (panel of Table 4); settings: kinase PKC
T12 construct: other: kinase PKC; ATP 100 μM
Experimental: as §1

[13] = target: T13, protein kinases (panel of Table 4) (Homo sapiens, UniProt P49841); settings: kinase GSK3b
T13 construct: other: kinase GSK3b; ATP 100 μM
Experimental: as §1

T7 sequence (P50750 whole entry): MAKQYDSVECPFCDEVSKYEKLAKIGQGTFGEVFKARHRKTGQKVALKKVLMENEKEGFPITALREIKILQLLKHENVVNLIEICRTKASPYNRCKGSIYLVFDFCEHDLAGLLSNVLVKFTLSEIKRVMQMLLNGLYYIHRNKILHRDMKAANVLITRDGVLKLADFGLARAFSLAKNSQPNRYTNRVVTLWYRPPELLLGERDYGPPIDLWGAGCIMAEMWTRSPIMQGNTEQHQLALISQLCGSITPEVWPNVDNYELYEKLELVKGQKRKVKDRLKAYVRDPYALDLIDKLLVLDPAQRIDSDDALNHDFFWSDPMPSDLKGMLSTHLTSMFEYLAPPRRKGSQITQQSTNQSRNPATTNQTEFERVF
T10 sequence (Q00534 whole entry): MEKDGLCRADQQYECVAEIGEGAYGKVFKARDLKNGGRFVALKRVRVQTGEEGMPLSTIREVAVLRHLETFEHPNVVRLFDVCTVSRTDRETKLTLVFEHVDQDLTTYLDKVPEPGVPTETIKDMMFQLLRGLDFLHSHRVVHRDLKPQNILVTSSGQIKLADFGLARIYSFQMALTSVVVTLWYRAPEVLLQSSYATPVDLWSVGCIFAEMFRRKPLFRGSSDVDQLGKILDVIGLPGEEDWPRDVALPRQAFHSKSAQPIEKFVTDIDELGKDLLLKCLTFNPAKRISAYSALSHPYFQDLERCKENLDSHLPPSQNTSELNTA
T9 sequence (P06239 whole entry): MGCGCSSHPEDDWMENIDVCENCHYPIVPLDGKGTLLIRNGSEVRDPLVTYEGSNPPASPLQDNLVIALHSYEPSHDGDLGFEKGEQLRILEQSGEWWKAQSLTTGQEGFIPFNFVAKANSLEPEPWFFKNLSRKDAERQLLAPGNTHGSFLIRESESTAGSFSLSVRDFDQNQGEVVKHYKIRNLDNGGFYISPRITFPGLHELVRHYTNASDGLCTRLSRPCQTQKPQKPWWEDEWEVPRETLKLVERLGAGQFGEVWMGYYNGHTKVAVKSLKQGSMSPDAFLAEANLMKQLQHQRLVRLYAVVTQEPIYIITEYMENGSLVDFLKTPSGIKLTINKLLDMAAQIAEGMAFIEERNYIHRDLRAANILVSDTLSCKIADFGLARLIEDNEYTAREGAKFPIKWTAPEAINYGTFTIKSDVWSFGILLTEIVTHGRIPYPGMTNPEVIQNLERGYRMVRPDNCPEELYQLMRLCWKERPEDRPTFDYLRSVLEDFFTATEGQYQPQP
T13 sequence (P49841 whole entry): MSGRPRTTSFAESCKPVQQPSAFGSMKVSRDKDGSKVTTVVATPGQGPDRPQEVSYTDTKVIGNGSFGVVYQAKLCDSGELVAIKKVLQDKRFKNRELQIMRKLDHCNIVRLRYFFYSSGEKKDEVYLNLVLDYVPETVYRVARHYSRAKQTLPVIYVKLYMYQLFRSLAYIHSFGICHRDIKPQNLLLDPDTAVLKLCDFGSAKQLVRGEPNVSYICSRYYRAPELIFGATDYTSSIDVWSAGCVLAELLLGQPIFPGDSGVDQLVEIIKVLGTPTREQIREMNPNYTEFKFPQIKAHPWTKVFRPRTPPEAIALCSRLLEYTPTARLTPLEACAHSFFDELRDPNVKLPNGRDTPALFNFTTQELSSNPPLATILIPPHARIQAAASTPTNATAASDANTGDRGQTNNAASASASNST
T11 sequence (P53350 whole entry): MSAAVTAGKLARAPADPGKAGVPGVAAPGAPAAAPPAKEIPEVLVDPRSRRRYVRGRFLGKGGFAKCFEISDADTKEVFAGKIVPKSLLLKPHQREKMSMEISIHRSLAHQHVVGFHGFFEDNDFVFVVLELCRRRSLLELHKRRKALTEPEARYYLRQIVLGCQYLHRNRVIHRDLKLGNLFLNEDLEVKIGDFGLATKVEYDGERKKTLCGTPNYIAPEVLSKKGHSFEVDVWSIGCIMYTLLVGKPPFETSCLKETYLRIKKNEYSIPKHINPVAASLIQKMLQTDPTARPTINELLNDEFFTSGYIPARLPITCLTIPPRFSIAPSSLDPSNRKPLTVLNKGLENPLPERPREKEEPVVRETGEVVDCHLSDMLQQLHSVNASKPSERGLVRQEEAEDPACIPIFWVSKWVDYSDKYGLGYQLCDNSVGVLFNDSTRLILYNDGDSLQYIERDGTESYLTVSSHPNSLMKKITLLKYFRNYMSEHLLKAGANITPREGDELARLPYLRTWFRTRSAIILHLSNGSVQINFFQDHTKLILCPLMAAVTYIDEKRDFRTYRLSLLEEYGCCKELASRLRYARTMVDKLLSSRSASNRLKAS
T4 sequence (P49840 whole entry): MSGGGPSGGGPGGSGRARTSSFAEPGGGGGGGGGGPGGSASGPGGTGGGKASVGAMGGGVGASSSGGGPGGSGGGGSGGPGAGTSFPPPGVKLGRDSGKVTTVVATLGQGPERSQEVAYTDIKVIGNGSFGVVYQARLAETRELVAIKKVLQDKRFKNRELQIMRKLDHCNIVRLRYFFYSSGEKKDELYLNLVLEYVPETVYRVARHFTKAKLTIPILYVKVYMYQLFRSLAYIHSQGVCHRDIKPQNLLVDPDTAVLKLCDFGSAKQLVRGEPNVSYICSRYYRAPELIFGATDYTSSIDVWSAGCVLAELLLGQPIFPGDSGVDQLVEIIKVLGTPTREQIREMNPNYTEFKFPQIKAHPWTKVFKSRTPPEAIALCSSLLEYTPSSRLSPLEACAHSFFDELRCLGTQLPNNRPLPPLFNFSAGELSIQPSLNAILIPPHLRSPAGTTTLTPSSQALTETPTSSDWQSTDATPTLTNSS
T3 sequence (P00519 whole entry): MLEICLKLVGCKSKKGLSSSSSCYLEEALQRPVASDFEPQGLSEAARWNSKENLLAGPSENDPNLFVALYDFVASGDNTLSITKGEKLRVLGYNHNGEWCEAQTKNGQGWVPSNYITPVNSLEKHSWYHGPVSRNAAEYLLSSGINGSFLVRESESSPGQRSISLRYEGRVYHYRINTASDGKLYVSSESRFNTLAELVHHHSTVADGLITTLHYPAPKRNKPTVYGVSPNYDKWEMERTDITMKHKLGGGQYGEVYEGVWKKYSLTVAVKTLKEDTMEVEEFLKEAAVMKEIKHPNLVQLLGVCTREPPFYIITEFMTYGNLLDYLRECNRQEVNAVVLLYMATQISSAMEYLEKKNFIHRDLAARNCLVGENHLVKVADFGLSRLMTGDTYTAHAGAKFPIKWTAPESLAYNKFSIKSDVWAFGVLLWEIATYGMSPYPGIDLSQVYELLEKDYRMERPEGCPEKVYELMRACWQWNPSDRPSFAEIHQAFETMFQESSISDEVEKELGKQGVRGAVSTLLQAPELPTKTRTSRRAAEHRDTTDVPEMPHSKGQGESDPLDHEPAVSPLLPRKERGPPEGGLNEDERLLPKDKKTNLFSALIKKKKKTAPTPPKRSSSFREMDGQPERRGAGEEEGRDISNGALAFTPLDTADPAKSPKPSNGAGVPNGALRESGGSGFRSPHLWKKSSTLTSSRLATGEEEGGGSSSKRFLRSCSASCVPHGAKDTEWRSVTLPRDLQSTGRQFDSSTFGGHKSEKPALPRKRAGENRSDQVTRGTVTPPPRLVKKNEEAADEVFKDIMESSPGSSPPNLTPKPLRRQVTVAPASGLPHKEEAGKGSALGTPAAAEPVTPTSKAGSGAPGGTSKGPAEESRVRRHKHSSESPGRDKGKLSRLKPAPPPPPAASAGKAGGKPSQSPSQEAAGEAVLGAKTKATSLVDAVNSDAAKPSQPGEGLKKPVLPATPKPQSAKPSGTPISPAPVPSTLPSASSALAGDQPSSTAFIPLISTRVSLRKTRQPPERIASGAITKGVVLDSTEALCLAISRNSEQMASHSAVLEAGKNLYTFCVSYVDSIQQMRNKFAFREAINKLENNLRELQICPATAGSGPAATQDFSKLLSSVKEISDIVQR
T1 sequence (P09619 whole entry): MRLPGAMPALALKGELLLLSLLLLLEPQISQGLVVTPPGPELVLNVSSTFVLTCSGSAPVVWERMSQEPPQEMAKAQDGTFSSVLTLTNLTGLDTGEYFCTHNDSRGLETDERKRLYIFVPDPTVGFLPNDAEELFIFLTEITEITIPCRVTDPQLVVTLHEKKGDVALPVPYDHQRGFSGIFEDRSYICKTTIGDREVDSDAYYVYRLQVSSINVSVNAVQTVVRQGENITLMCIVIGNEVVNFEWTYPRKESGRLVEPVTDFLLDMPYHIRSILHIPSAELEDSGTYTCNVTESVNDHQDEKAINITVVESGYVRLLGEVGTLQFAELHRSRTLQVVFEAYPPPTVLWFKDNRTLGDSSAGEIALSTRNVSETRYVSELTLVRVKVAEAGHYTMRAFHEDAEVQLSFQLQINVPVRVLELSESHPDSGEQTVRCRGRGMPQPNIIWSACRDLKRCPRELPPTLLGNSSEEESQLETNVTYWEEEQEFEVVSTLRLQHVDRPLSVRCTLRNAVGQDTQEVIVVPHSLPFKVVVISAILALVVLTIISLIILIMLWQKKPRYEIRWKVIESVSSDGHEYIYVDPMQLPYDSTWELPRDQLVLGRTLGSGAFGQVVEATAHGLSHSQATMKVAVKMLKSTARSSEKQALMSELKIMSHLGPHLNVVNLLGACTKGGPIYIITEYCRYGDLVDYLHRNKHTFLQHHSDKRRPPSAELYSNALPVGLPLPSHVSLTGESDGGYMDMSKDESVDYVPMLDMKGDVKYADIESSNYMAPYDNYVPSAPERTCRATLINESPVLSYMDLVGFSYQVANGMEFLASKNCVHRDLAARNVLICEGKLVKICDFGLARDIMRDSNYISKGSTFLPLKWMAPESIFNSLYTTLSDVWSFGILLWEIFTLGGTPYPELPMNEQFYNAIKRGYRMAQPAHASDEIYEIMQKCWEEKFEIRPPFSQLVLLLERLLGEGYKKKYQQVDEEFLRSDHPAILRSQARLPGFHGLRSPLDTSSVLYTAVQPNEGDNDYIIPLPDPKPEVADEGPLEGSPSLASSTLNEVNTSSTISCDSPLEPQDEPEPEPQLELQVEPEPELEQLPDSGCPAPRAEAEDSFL

Row | IC50 [1] [µM] | IC50 [2] [µM] | IC50 [3] [µM] | IC50 [4] [µM] | IC50 [5] [µM] | IC50 [6] [µM] | IC50 [7] [µM] | IC50 [8] [µM] | IC50 [9] [µM] | IC50 [10] [µM] | IC50 [11] [µM] | IC50 [12] [µM] | IC50 [13] [µM] | Compound
1 | 0.52 | 0.2 | 2.1 | 0.012 | 0.065 | 0.32 | 0.001 | 0.18 | 0.5 | 0.33 | > 10 | > 10 | 0.094 | CNc1nc(C)c(-c2ccnc(Nc3cccc(S(C)(=O)=O)c3)n2)s1 [Compound 27, (3-Methanesulfonyl-phenyl)-[4-(4-methyl-2-methylamino-thiazol-5-yl)-pyrimidin-2-yl]-amine]
2 | 6.6 | 5.9 | 3.8 | 0.65 | 0.17 | 1.1 | 0.022 | > 10 | 4.9 | > 10 | > 10 | 6.4 | 1.8 | CNc1nc(C)c(-c2ccnc(Nc3ccc(C)c(S(=O)(=O)N4CCOCC4)c3)n2)s1 [Compound 37, [4-(4-Methyl-2-methylamino-thiazol-5-yl)-pyrimidin-2-yl]-[4-methyl-3-(morpholine-4-sulfonyl)-phenyl]-amine]
3 | 4.8 | 0.65 | 2.3 | 0.96 | 0.2 | 0.45 | 0.028 | > 10 | 2.6 | 4.8 | > 10 | 2.5 | 2.2 | Cc1ccc(Nc2nccc(-c3sc(N)nc3C)n2)cc1S(=O)(=O)N1CCOCC1 [Compound 38, [4-(2-Amino-4-methyl-thiazol-5-yl)-pyrimidin-2-yl]-[4-methyl-3-(morpholine-4-sulfonyl)-phenyl]-amine]
4 | 1.9 | 0.62 | 2.1 | 0.29 | 0.18 | 0.16 | 0.03 | 1.6 | 1.8 | 2.1 | > 10 | 5.8 | 0.45 | COCCNS(=O)(=O)c1cccc(Nc2nccc(-c3sc(N)nc3C)n2)c1 [Compound 55, 3-[4-(2-Amino-4-methyl-thiazol-5-yl)-pyrimidin-2-ylamino]-N-(2-methoxy-ethyl)-benzenesulfonamide]

Continued, compound first:

Row | Compound | IC50 [1] [µM] | IC50 [2] [µM] | IC50 [3] [µM] | IC50 [4] [µM] | IC50 [5] [µM] | IC50 [6] [µM] | IC50 [7] [µM] | IC50 [8] [µM] | IC50 [9] [µM] | IC50 [10] [µM] | IC50 [11] [µM] | IC50 [12] [µM] | IC50 [13] [µM]
5 | CNc1nc(C)c(-c2ccnc(Nc3cccc(S(N)(=O)=O)c3)n2)s1 [Compound 19, 3-[4-(4-Methyl-2-methylamino-thiazol-5-yl)-pyrimidin-2-ylamino]-benzenesulfonamide] | 0.49 | 0.054 | 0.37 | 0.16 | 0.03 | 0.04 | 0.003 | 0.017 | 0.49 | 0.039 | > 10 | 5.5 | 0.17
6 | CCNc1nc(C)c(-c2ccnc(Nc3ccc(N4CCNCC4)cc3)n2)s1 [Compound 59, [4-(2-Ethylamino-4-methyl-thiazol-5-yl)-pyrimidin-2-yl]-(4-piperazin-1-yl-phenyl)-amine] | 0.21 | 0.16 | 0.47 | > 10 | 0.017 | 0.09 | 0.11 | 0.046 | 0.12 | 0.029 | > 10 | > 10 | > 10
